Active and inactive are the calls of the source. The calls are words filed in the database; no cut-off is given here.
Columns and labels:
[1] = biological target: DNA topoisomerase 2-alpha (Homo sapiens) (UniProt P11388); experiment: Binding affinity to nuclear export signal of topoisomerase 2alpha in human NCI-H929 cells assessed as potentiation of doxorubicin-induced apoptosis by measuring increase in cleaved caspase-3 levels at 25 uM pre-incubated for 20 hrs followed by addition of doxorubicin for 4 hrs; type: cell-based
DNA topoisomerase 2-alpha (Homo sapiens), sequence (P11388 whole entry): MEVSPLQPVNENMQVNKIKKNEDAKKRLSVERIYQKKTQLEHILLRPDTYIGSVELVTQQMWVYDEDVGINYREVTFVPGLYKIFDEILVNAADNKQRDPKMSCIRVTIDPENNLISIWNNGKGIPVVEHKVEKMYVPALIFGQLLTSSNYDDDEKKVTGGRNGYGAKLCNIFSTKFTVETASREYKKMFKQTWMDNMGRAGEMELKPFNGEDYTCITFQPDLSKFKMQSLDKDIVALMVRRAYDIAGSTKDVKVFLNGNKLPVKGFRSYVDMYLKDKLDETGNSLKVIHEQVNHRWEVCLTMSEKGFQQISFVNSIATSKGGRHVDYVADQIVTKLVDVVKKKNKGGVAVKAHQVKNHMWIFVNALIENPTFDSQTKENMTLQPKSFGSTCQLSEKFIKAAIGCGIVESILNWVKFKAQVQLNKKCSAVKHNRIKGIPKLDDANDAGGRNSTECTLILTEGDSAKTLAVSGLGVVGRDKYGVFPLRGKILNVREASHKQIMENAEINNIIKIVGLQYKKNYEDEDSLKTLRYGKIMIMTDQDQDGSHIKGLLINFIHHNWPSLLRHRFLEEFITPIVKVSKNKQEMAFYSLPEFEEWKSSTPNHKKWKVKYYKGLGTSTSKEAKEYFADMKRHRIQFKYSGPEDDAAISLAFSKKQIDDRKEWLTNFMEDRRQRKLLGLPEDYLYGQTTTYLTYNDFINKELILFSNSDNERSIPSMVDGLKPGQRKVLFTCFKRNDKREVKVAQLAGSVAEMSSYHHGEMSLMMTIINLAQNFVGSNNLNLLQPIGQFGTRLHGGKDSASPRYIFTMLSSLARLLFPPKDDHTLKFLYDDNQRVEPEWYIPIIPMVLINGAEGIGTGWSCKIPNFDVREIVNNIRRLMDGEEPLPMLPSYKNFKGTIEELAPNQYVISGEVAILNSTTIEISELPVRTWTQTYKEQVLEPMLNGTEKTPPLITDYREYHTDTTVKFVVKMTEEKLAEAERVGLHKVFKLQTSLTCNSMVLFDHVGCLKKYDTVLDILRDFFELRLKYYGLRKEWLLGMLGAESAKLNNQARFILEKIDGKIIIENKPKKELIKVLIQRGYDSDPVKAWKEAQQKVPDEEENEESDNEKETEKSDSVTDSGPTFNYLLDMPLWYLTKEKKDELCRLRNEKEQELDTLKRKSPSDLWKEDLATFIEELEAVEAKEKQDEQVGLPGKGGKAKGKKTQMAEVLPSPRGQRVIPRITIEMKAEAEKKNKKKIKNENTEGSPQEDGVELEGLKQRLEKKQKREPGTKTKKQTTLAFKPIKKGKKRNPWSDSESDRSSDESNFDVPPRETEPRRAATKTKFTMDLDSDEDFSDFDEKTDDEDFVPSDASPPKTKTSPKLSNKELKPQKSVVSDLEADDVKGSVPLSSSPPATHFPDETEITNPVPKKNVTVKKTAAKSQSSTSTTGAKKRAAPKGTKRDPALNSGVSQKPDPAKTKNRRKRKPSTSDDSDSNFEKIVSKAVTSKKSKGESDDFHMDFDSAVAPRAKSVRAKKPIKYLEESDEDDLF

[2] = biological target: DNA topoisomerase 2-alpha (Homo sapiens) (UniProt P11388); experiment: Binding affinity to nuclear export signal of topoisomerase 2alpha in human RPMI8226 cells assessed as potentiation of doxorubicin-induced apoptosis by measuring increase in cleaved caspase-3 levels at 25 uM pre-incubated for 20 hrs followed by addition of doxorubicin for 4 hrs; type: cell-based
[3] = biological target: DNA topoisomerase 2-alpha (Homo sapiens) (UniProt P11388); experiment: Binding affinity to nuclear export signal of topoisomerase 2alpha in human U266 cells assessed as potentiation of doxorubicin-induced apoptosis by measuring increase in cleaved caspase-3 levels at 25 uM pre-incubated for 20 hrs followed by addition of doxorubicin for 4 hrs; type: cell-based
NCI-H929 = experiment: Induction of apoptosis in human NCI-H929 cells assessed as increase in cleaved caspase-3 levels at 25 uM incubated for 20 hrs; type: functional, cell-based
RPMI-8226 [4] = experiment: Induction of apoptosis in human RPMI8226 cells assessed as increase in cleaved caspase-3 levels at 25 uM incubated for 20 hrs; type: functional, cell-based
U-266 = experiment: Induction of apoptosis in human U266 cells assessed as increase in cleaved caspase-3 levels at 25 uM incubated for 20 hrs; type: functional, cell-based
[5] = biological target: DNA topoisomerase II (Homo sapiens) (UniProt P11388+Q02880); experiment: Inhibition of decatenation activity of human topoisomerase 2 using kinetoplast DNA up to 50 uM incubated for 30 mins by agarose gel electrophoresis; type: protein assay
RPMI-8226 [6] = experiment: Effect on Top2alpha protein levels in human RPMI8226 cells at 25 uM incubated for 20 hrs by Western blot analysis; type: cell-based; conditions: rpmi-8226, 20 h
[7] = biological target: DNA topoisomerase 2-alpha (Homo sapiens) (UniProt P11388); experiment: Inhibition of nuclear export signal of topoisomerase 2alpha in human NCI-H929 cells assessed as reduction in cytoplasmic localization of Top2alpha at 100 uM incubated for 24 hrs by Western blot analysis; type: cell-based
[8] = biological target: Cellular tumor antigen p53 (Homo sapiens) (UniProt P04637); experiment: Inhibition of p53 nuclear export in human NCI-H929 cells at 25 uM incubated for 20 hrs by Western blot analysis; type: cell-based
Cellular tumor antigen p53 (Homo sapiens), sequence (P04637 whole entry, looked up): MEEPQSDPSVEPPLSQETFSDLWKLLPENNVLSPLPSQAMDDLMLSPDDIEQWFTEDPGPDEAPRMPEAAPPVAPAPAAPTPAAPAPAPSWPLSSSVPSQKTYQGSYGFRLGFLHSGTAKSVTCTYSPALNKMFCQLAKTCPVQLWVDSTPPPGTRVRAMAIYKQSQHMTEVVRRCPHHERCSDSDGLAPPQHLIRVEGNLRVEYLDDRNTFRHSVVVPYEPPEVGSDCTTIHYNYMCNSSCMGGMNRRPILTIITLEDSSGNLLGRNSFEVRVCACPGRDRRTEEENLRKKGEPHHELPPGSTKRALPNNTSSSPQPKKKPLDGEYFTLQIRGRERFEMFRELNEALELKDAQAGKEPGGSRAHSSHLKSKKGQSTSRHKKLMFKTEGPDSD

[9] = biological target: DNA topoisomerase 2-alpha (Homo sapiens) (UniProt P11388); experiment: Binding affinity to nuclear export signal of topoisomerase 2alpha in human WI38 cells assessed as potentiation of doxorubicin-induced apoptosis by measuring increase in cleaved caspase-3 levels at 25 uM pre-incubated for 20 hrs followed by addition of doxorubicin for 4 hrs; type: cell-based
[10] = biological target: DNA topoisomerase 2-alpha (Homo sapiens) (UniProt P11388); experiment: Binding affinity to nuclear export signal of topoisomerase 2alpha in human Flow 2000 cells assessed as potentiation of doxorubicin-induced apoptosis by measuring increase in cleaved caspase-3 levels at 25 uM pre-incubated for 20 hrs followed by addition of doxorubicin for 4 hrs; type: cell-based
[11] = biological target: DNA topoisomerase 2-alpha (Homo sapiens) (UniProt P11388); experiment: Binding affinity to nuclear export signal of topoisomerase 2alpha in human PBMC cells assessed as potentiation of doxorubicin-induced apoptosis by measuring increase in cleaved caspase-3 levels at 25 uM pre-incubated for 20 hrs followed by addition of doxorubicin for 4 hrs; type: cell-based
[12] = biological target: DNA topoisomerase 2-alpha (Homo sapiens) (UniProt P11388); experiment: Binding affinity to nuclear export signal of topoisomerase 2alpha in human KG1a cells assessed as potentiation of doxorubicin-induced apoptosis by measuring increase in cleaved caspase-3 levels at 25 uM pre-incubated for 20 hrs followed by addition of doxorubicin for 4 hrs; type: cell-based
[13] = biological target: DNA topoisomerase 2-alpha (Homo sapiens) (UniProt P11388); experiment: Binding affinity to nuclear export signal of topoisomerase 2alpha in human HL60 cells assessed as potentiation of doxorubicin-induced apoptosis by measuring increase in cleaved caspase-3 levels at 25 uM pre-incubated for 20 hrs followed by addition of doxorubicin for 4 hrs; type: cell-based
[14] = biological target: DNA topoisomerase 2-alpha (Homo sapiens) (UniProt P11388); experiment: Binding affinity to nuclear export signal of topoisomerase 2alpha in human MCF7 cells assessed as potentiation of doxorubicin-induced apoptosis by measuring increase in cleaved caspase-3 levels at 25 uM pre-incubated for 20 hrs followed by addition of doxorubicin for 4 hrs; type: cell-based
[15] = biological target: Exportin-1 (Homo sapiens) (UniProt O14980); experiment: Inhibition of CRM1 in human NCI-H929 cells assessed as increase in nuclear localization of Top2alpha at 50 uM incubated for 2 hrs by Western blot analysis; type: cell-based
Exportin-1 (Homo sapiens), sequence (O14980 whole entry): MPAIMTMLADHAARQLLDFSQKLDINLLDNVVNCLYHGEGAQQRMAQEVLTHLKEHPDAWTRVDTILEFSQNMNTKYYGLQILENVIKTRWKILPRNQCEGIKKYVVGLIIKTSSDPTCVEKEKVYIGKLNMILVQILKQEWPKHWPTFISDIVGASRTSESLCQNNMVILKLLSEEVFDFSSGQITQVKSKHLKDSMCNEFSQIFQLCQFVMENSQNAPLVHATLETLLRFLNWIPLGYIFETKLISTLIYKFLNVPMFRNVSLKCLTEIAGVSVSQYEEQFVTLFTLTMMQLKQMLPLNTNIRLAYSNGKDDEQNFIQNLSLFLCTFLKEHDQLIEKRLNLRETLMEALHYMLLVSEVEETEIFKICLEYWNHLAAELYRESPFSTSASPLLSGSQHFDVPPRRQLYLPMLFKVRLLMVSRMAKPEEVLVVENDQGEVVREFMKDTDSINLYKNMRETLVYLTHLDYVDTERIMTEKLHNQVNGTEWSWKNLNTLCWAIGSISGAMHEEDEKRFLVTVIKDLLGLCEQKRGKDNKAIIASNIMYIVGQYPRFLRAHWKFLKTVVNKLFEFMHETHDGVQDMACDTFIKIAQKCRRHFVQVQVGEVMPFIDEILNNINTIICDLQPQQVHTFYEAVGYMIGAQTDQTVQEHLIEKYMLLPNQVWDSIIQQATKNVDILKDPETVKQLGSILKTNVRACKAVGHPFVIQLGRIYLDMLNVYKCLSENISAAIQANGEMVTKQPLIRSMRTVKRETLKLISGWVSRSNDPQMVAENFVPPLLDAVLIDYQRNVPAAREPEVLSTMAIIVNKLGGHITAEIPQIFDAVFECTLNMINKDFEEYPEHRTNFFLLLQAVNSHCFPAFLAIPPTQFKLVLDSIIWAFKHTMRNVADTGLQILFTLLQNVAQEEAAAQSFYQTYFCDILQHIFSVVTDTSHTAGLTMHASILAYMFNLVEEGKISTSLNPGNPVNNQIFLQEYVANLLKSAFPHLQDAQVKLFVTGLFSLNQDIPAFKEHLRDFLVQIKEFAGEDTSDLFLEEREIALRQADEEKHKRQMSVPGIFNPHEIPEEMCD

[16] = biological target: DNA topoisomerase 2-alpha (Homo sapiens) (UniProt P11388); experiment: Inhibition of nuclear export signal of topoisomerase 2alpha in human NCI-H929 cells assessed as reduction in Top2alpha binding to CRM1 at 25 uM incubated for 20 hrs by Western blot analysis and co-immunoprecipitation analysis; type: cell-based
[17] = biological target: DNA topoisomerase 2-alpha (Homo sapiens) (UniProt P11388); experiment: Inhibition of nuclear export signal of topoisomerase 2alpha in human NCI-H929 cells assessed as increase in nuclear localization of Top2alpha at 50 uM incubated for 2 hrs by Western blot analysis; type: cell-based

SMILES | Activity [1] | Activity [2] | Activity [3] | Activity (NCI-H929) | Activity (RPMI-8226 [4]) | Activity (U-266) | inhibition [5] | Activity (RPMI-8226 [6]) | inhibition [7] | inhibition [8] | inhibition [9] | inhibition [10] | inhibition [11] | inhibition [12] | inhibition [13] | inhibition [14] | inhibition [15] | inhibition [16] | inhibition [17]
COCN1CCC2N(COC)CCC3N(COC)CCC1N23 (stereo unspecified) | Active | Active | Active | inactive | inactive | inactive |  |  |  |  |  |  |  |  |  |  |  |  | 
Clc1cc(Cl)c(C[N+]23CN4CN(CN(C4)C2)C3)cc1Cl | Active | Active | Active | inactive | inactive | inactive | inactive | Non-Toxic | inactive | inactive | inactive | inactive | inactive | inactive | inactive | Active |  |  | 
c1ccc(C2NNC(c3ccccc3)NN2)cc1 (stereo unspecified) | Active | Active | Active | inactive | inactive | inactive |  |  |  |  |  |  |  |  |  |  |  |  | 
Brc1ccc(C[N+]23CN4CN(CN(C4)C2)C3)cc1 | Active | Active | Active | inactive | inactive | inactive | inactive | Non-Toxic | Active | Active | inactive | inactive | inactive | inactive | inactive | Active |  |  | 
O=C(C[N+]12CN3CN(CN(C3)C1)C2)c1ccc(Br)cc1 |  |  |  |  |  |  |  |  | inactive |  |  |  |  |  |  |  |  |  | 
C1CN2C(=N1)N1CCN=C1N1CCN=C21 | Active | Active | Active | inactive | inactive | inactive |  |  |  |  |  |  |  |  |  |  |  |  | 
C/C=C/[C@@H]1O[C@H]([C@H](O)/C=C/C=C/C[C@@H](C)/C=C(\C=C\[C@H]2CC=CC(=O)O2)CC)C[C@@H](O)[C@@H]1C |  |  |  |  |  |  |  |  |  |  |  |  |  |  |  |  | Active |  | 
O=C1c2ccccc2C(=O)C1C(=O)C(c1ccccc1)c1ccccc1 [DIPHENADIONE] | Active | Active | Active | inactive | inactive | inactive | inactive | Non-Toxic | Active | inactive | inactive | inactive | inactive | inactive | inactive | Active |  | Active | Active
O=C(Nc1ccc(C2=NCCN2)cc1)c1ccc(C(=O)Nc2ccc(C3=NCCN3)cc2)c([N+](=O)[O-])c1 | Active | Active | Active | inactive | inactive | inactive | inactive | Non-Toxic | Active | inactive | inactive | inactive | inactive | inactive | inactive | Active |  |  | 
